Experimental data: US7429679B2, “Sulphonic acid salt of sibutramine” (CJ Corporation, priority 2005, dated 2008)
Where a name gives a salt, the structure may show the parent alone.

Experiments:
rat = conditions: oral; cited from earlier work
[1] = Evaluation of hygroscopicity: water content (K.F.) after exposure to humid conditions at 25° C.; assay type: physicochemical
Procedure: The sulphonic acid salts of sibutramine, prepared in Examples 1 to 5, and sibutramine hydrochloride monohydrate were exposed to humid conditions (10%, 75% and 90% RH) at 25° C. for a period of three days or one week. Then, the water content (K.F. water %) of the samples was measured.

[2] = Evaluation of stability: stringent 60° C. heat treatment, content by HPLC; assay type: physicochemical; set-up: content (HPLC) upon 60° C. heat treatment: reference not given here
Procedure: The sulphonic acid salts of sibutramine, prepared in Examples 1 to 5, and sibutramine hydrochloride monohydrate were exposed to a stringent 60° C. heat treatment.
HPLC was performed under the following conditions.
Wavelength of UV detection: 225 nm
Column: octadecyl silica gel, C18 (4.6×150 mm, 5 μm)
Mobile phase: an aqueous solution of ammonium phosphate monohydride (0.05 M) (adjusted to pH 6 with phosphoric acid): acetonitrile=35:65

[3] = Evaluation of light stability: exposure to fluorescence at 25° C., ICH light stability test chamber, content by HPLC; assay type: physicochemical; set-up: content (HPLC) in light stability test: reference not given here
Procedure: A light stability test was performed as follows. The sulphonic acid salts of sibutramine, prepared in Examples 1 to 5, and sibutramine hydrochloride monohydrate were exposed to fluorescence at 25° C. using a light stability test chamber suitable for the ICH guideline, for storage periods of 1, 2 and 4 weeks.

[4] = Evaluation of solubility in distilled water and aqueous solutions having various pH values; assay type: physicochemical

Compound: O=S(=O)(O)c1ccccc1 [benzenesulfonic acid]
- LD50 (rat): 1,157 mg/kg

Compound: CC(C)CC(N(C)C)C1(c2ccc(Cl)cc2)CCC1 (centres unmarked) [HCl monohydrate, sibutramine hydrochloride monohydrate, reference compound]
- water content (K.F. water %) ([1]; 10% relative humidity, 25° C., 1 week, hydrochloride monohydrate): 5.48%
- water content (K.F. water %) ([1]; 10% relative humidity, 25° C., 3 days, hydrochloride monohydrate): 5.51%
- water content (K.F. water %) ([1]; 75% relative humidity, 25° C., 1 week, hydrochloride monohydrate): 5.50%
- water content (K.F. water %) ([1]; 75% relative humidity, 25° C., 3 days, hydrochloride monohydrate): 5.49%
- water content (K.F. water %) ([1]; 90% relative humidity, 25° C., 1 week, hydrochloride monohydrate): 5.49%
- water content (K.F. water %) ([1]; 90% relative humidity, 25° C., 3 days, hydrochloride monohydrate): 5.50%
- water content (K.F. water %) ([1]; Initial, hydrochloride monohydrate): 5.50%
- content (HPLC) upon 60° C. heat treatment ([2]; 60° C., 1 wk, hydrochloride monohydrate): 0.999
- content (HPLC) upon 60° C. heat treatment ([2]; 60° C., 2 wks, hydrochloride monohydrate): 0.999
- content (HPLC) upon 60° C. heat treatment ([2]; 60° C., 4 wks, hydrochloride monohydrate): 0.999
- change in content / impurities upon 60° C. heat treatment (in words) ([2]; 60° C., up to one month or longer): almost no change in content
- content (HPLC) upon 60° C. heat treatment ([2]; Initial): 1.000
- content (HPLC) in light stability test ([3]; Initial): 1.000
- light stability (in words) ([3]; content changes analyzed by HPLC): good light stability
- content (HPLC) in light stability test ([3]; fluorescence, 25° C., 1 wk, hydrochloride monohydrate): 0.999
- content (HPLC) in light stability test ([3]; fluorescence, 25° C., 2 wks, hydrochloride monohydrate): 1.000
- content (HPLC) in light stability test ([3]; fluorescence, 25° C., 4 wks, hydrochloride monohydrate): 0.999

Compound: Cc1ccc(S(=O)(=O)O)cc1 [p-toluenesulfonic acid]
- LD50 (rat): 2,480 mg/kg

Compound: CC(C)CC(N(C)C)C1(c2ccc(Cl)cc2)CCC1 (centres unmarked) [Esylate hemihydrate, sibutramine esylate hemihydrate]
- water content (K.F. water %) ([1]; 10% relative humidity, 25° C., 1 week, hemihydrate): 2.37%
- water content (K.F. water %) ([1]; 10% relative humidity, 25° C., 3 days, hemihydrate): 2.35%
- water content (K.F. water %) ([1]; 75% relative humidity, 25° C., 1 week, hemihydrate): 2.35%
- water content (K.F. water %) ([1]; 75% relative humidity, 25° C., 3 days, hemihydrate): 2.29%
- water content (K.F. water %) ([1]; 90% relative humidity, 25° C., 1 week, hemihydrate): 2.40%
- water content (K.F. water %) ([1]; 90% relative humidity, 25° C., 3 days, hemihydrate): 2.44%
- water content (K.F. water %) ([1]; Initial, hemihydrate): 2.37%
- change in water content under humid conditions (in words) ([1]; relative humidities of 10%, 75% and 90%, up to one week or longer): almost no change in water content
- solubility ([4]; DW (distilled water), hemihydrate): 84.10 mg/mL
- solubility compared to sibutramine hydrochloride monohydrate (in words) ([4]; distilled water (DW) and buffer solutions at various pH values, hemihydrate): excellent solubility compared to sibutramine hydrochloride monohydrate
- solubility relative to sibutramine hydrochloride ([4]; distilled water and aqueous solutions of pH 1.2, pH 4.0, pH 5.3, pH 6.8 and pH 7.4): two times-higher than the solubility of sibutramine hydrochloride
- solubility ([4]; pH 1.2, hemihydrate): 70.65 mg/mL
- solubility ([4]; pH 4.0, hemihydrate): 26.42 mg/mL
- solubility ([4]; pH 5.3, hemihydrate): 19.53 mg/mL
- solubility ([4]; pH 6.8, hemihydrate): 69.42 mg/mL
- solubility ([4]; pH 7.4, hemihydrate): 27.61 mg/mL
- content (HPLC) upon 60° C. heat treatment ([2]; 60° C., 1 wk, hemihydrate): 1.000
- content (HPLC) upon 60° C. heat treatment ([2]; 60° C., 2 wks, hemihydrate): 0.999
- content (HPLC) upon 60° C. heat treatment ([2]; 60° C., 4 wks, hemihydrate): 0.999
- content (HPLC) in light stability test ([3]; fluorescence, 25° C., 1 wk, hemihydrate): 0.999
- content (HPLC) in light stability test ([3]; fluorescence, 25° C., 2 wks, hemihydrate): 1.000
- content (HPLC) in light stability test ([3]; fluorescence, 25° C., 4 wks, hemihydrate): 0.999
